Each structure is given as a SMILES string. Where a name gives a salt, the structure may show the parent alone.

The term ED50 denotes the midpoint of the dose-response relation. What is called inhibition in vivo is how much of the control response was suppressed.

For assay [1], the system named is carrageenin-induced paw edema in rats. In words: Systemic anti-inflammatory action on carrageenin-induced paw edema in rats. The following applies: Rattus norvegicus, po; decrease in paw volume, 3 and 6 hours after carrageenin; from dose/response curve; read-out: ED50. Type of assay: in vivo, male Charles Foster rats. The procedure: Male Charles Foster rats (120-150 g) were fasted for 18 hours, with water ad libitum. The test compound dissolved in distilled water was administered orally. The control group received distilled water. 0/05 ml of 0.5% carrageenin suspension was injected subcutaneously into the plantar region of the left hind paw. Using a Maclab differential volume meter, the paw volume was determined before the carrageenin injection and 3 and 6 hours after the injection. The percentage decrease in paw volume was calculated by the following equation: [formula] The ED50 value was calculated from the dose/response curve. Six animals were used for each group. The results with representative compounds according to the invention and their salts are listed in Table 4, the substituents relating to the following formula Ia: [drawing 11]
A general note: In the carrageenan paw model, swelling and tenderness develop within hours.

The test system of assay [2] is reverse passive Arthus reaction (RPA) in rats. In words: Reverse passive Arthus reaction (RPA) in rats. Type of assay: in vivo, Charles Foster rats of both sexes. To be noted: Rattus norvegicus, po, 4 h, one hour before RPA, edema vs untreated control; for inhibition in vivo at 2.5 mg/kg: dose 2.5 mg/kg p.o.; for inhibition in vivo at 5 mg/kg: dose 5.0 mg/kg p.o.; for inhibition in vivo at 10 mg/kg: dose 10.0 mg/kg p.o.; for inhibition in vivo at 20 mg/kg: dose 20.0 mg/kg p.o. The procedure:
Charles Foster rats of both sexes, weighing 150-180 g, were sorted into groups of six animals each. 24 hours before the initiation of the RPA, the rats were shaved from the mid-dorsal region and fasted overnight. The test compounds were administered orally one hour before inducing the Arthus reaction. The RPA reaction was induced by intradermal injection of 0.1 ml of appropriately diluted rabbit anti-BSA serum. Immediately after the intradermal exposure, each rat received 0.5 ml of 0.4% bovine serum albumin intraveneously. Four hours after the intradermal challenge, each group of animals was killed by cervical dislocation. The full thickness of the skin was removed from the back of each animal, and a 12 mm diameter disk was punched out with a metal punch from the site of the antiserum injection. The wet weight of each skin site was determined as soon as possible. The edema caused by the RPA was measured as the difference (expressed in mg) between the wet weight of the site injected with antibody and that injected with normal rabbit serum. The results are expressed as the percentage inhibition or potentiation of the edema by the compound as compared with the edema induced in the untreated control animals.

Turning to `CN1CC[C@H](c2c(O)cc(O)c3c(=O)cc(-c4ccccc4)oc23)[C@H](O)C1` (single isomer, unassigned) [(-) Phenyl H CH3 HCl.1/2H2 O, cis-(-)-5,7-dihydroxy-2-phenyl-8-[4'-(3'-hydroxy-1'-methyl)-piperidinyl]-4H-1-benzopyran-4-one], the 50% effective dose (ED50) in assay [1] was found to be 1.3 mg/kg. For the same compound, in assay [2], the inhibition in vivo at 2.5 mg/kg was determined as 26.2%, the inhibition in vivo at 5 mg/kg amounted to 64.5% and the inhibition in vivo at 10 mg/kg came out at 92.2%.

On to `Cc1cc(=O)c2c(O)cc(O)c(C3CCN(CC4CC4)CC3O)c2o1` (single isomer, unassigned; (-)) [(-) CH3 H [drawing 12] HCl.H2 O, cis-(-)-5,7-Dihydroxy-2-methyl-8-[4'-(1'-cyclopropylmethyl-3'-hydroxy)-piperidinyl]-4H-1-benzopyran-4-one hydrochloride], for which, in assay [1], the ED50 was 10 mg/kg. For the same compound, in assay [2], the inhibition in vivo at 2.5 mg/kg is 23%, the inhibition in vivo at 5 mg/kg came to 49.7% and the inhibition in vivo at 20 mg/kg is 74%.

`CCCc1cc(=O)c2c(O)cc(O)c(C3CCN(C)CC3O)c2o1` (single isomer, unassigned; (-)) [(-) n-C3 H7 H CH3 HCl.H2 O, cis-(-)-5,7-dihydroxy-2-n-propyl-8-[4'-(3'-hydroxy-1'-methyl)-piperidinyl]-4H-1-benzopyran-4-one]: in assay [1], the 50% effective dose (ED50) amounted to 5.8 mg/kg. For the same compound, in assay [2], the inhibition in vivo at 2.5 mg/kg is 42.7%, the inhibition in vivo at 5 mg/kg amounted to 41.3%, the inhibition in vivo at 10 mg/kg is 63.7% and the inhibition in vivo at 20 mg/kg is 72.1%.

Source of the values: patent publication US4900727A, “4H-1-benzopyran-4-one compounds which have anti-inflamatory or immunodulating action” (Hoechst Aktiengesellschaft, priority 1986, dated 1990).
